Results from US20220363665A1, “QUINOLINE COMPOUNDS FOR THE TREATMENT OF AUTOIMMUNE DISEASE” (Hoffmann-La Roche Inc., priority 2019, published 2022).

Key:
Type in all cases: in vitro ADME
[1] = molecular target: T1, CYP2C9 (Homo sapiens, UniProt P11712); assay: CYP inhibition assay in human liver microsome, CYP2C9; settings: HLM, diclofenac substrate; for inhibition at 5 min, 10 µM: human, liver microsomes, probe diclofenac, read-out: CYP inhibition % @10 uM (2C9)
T1 construct: tissue BD-Gentest 452117; host or cells: human liver microsomes
Protocol: (§1) This is a high throughput screening assay used for assessment of reversible inhibition of CYP2C9, CYP2D6, and CYP3A4 activity of test compounds in human liver microsome (HLM) in early discovery stage.
(§2) 10 mM DMSO stock solutions of test compounds were diluted in DMSO to generate 2 mM intermediate stock solution. 250 nL of intermediate stock solution were transferred in duplicate into 3 separate 384 well microtitre plates (assay-ready plates). A mixture of HLM and each substrate was made up. 45 μL of HLM substrate mix was then transferred to each well of an assay ready plate and mixed. The negative (solvent) and positive controls (standard inhibitor for each CYP) were included in each assay ready plate. The assay ready plate was warmed to 37° C. in an incubator over 10 minutes. 5 μL pre-warmed NADPH regenerating system was added to each incubation well to start the reaction. Final incubation volume was 50 μL. The assay plate then was placed back in the 37° C. incubator. After 5 minutes incubation (10 minutes for CYP2D6), incubates were quenched by addition of 50 μL quench reagent containing internal standards (400 ng/mL 13C6-4′-OH-Diclofenac, 20 ng/mL D3-Dextrorphan and 20 ng/mL D4-1′OH-Midazolam in acetonitrile). The supernatants were collected for RapidFire/MS/MS analysis.
(§3) RapidFire online solid phase extraction/sample injection system (Agilent) coupled with API4000 triple quadrupole mass spectrometer (AB Sciex) were used for sample analysis. The mobile phase composed of acetonitrile and water supplemented with 0.1% formic acid. A C4 solid phase extraction cartridge is used for sample separation. MS detection is achieved in positive ion MRM mode.
(§4) Peak areas for substrate, metabolite and internal standard are determined using the
(§5) RapidFire integrator software (version 3.6.12009.12296). Peak area ratios (PAR) of metabolite and internal standard (stable-labelled metabolite) are then calculated. The measurement window for each experiment is then defined:
(§6) PAR (0% activity)=average PAR for all incubations containing concentrated inhibitor;
(§7) Par (100% activity)=average PAR for all incubations containing no inhibitor (DMSO controls);
(§8) % Activity (test inhibitor) =[PAR(test inhibitor)-PAR(0% activity)][PAR(100% activity)-PAR(0% activity)];
(§9) % Inhibition (test inhibitor)=100-% Activity (test inhibitor).
(§10) Percentage inhibition data are then reported, in duplicate, for the 3 CYP enzymes.

[2] = molecular target: T2, CYP2D6 (Homo sapiens, UniProt P10635); assay: CYP inhibition assay in human liver microsome, CYP2D6; settings: HLM, dextromethorphan substrate; for inhibition at 10 min, 10 µM: human, liver microsomes, probe dextromethorphan, read-out: CYP inhibition % @10 uM (2D6)
T2 construct: tissue BD-Gentest 452117; host or cells: human liver microsomes
Protocol: as §1, §2, §3, §4, §5, §6, §7, §8, §9, §10

[3] = molecular target: T3, CYP3A4 (Homo sapiens, UniProt P08684); assay: CYP inhibition assay in human liver microsome, CYP3A4; settings: human, liver microsomes, probe midazolam, HLM, midazolam substrate, read-out: CYP inhibition % @10 uM (3A4)
T3 construct: tissue BD-Gentest 452117; host or cells: human liver microsomes
Protocol: as §1, §2, §3, §4, §5, §6, §7, §8, §9, §10

T1 sequence (P11712 whole entry): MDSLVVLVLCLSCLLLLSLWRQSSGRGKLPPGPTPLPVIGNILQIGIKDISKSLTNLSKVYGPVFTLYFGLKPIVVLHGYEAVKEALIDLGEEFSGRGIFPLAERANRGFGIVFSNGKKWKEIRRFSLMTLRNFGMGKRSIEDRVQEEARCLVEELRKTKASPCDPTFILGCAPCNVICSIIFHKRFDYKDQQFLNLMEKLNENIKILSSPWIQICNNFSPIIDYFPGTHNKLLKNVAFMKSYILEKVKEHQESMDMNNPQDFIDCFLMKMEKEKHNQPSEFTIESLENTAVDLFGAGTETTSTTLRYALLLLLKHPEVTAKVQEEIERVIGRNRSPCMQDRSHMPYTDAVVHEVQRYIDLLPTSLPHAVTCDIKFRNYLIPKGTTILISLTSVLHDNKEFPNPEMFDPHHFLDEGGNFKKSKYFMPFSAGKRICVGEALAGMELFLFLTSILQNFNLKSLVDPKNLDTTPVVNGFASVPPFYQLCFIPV
T2 sequence (P10635 whole entry): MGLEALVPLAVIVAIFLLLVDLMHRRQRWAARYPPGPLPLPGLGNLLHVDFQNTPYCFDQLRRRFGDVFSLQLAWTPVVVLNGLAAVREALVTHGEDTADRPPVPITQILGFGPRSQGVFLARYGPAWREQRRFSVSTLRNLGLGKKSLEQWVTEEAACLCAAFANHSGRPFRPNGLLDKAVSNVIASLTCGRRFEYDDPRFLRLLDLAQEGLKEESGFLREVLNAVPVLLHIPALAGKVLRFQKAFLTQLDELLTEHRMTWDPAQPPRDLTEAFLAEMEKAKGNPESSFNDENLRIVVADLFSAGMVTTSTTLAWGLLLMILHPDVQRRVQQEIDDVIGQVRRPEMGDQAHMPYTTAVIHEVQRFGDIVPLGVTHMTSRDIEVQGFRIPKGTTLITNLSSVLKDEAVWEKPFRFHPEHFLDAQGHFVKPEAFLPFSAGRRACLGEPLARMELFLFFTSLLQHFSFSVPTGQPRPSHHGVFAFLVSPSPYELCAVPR
T3 sequence (P08684 whole entry): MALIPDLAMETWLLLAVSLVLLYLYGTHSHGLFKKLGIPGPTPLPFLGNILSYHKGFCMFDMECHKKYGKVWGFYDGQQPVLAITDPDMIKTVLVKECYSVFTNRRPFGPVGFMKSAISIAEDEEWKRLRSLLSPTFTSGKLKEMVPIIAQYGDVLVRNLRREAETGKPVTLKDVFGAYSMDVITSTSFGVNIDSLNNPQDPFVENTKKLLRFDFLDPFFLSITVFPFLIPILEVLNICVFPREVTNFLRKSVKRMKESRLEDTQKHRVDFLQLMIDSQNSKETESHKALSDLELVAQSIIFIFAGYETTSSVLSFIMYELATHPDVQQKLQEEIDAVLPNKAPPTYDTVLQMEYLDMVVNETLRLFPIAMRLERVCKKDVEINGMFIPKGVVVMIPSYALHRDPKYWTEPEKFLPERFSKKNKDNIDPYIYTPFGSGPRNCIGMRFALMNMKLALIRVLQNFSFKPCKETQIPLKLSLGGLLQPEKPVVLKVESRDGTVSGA

Row | SMILES | inhibition at 5 min, 10 µM [1] | inhibition at 10 min, 10 µM [2] | inhibition at 5 min, 10 µM [3] | CYP inhibition % @10 uM (2C9) ([1]; 10 µM) | CYP inhibition % @10 uM (2D6) ([2]; 10 µM)
1 | Cc1ccc(N2C[C@@H](C)C[C@@H](N)C2)c2cccnc12 [Example 15, (3R,5S)-5-methyl-1-(8-methyl-5-quinolyl)piperidin-3-amine] | -17% | -10% | -18% |  | 
2 | C[C@@H]1CN(c2ccc(C(F)(F)F)c3ncccc23)C[C@H](C(=O)N[C@@H]2CNC[C@@H]2F)O1 (single isomer, unassigned) [Example 2A] | 26% | 9% | 5% |  | 
3 | C[C@@H]1CN(c2ccc(C(F)(F)F)c3ncccc23)C[C@H](C(=O)NC2CNCCOC2)O1 (stereo partly drawn) [Example 14, (2R,6R)-6-methyl-N-(1,4-oxazepan-6-yl)-4-[8-(trifluoromethyl)-5-quinolyl]morpholine-2-carboxamide] | -2% | -1% | -24% |  | 
4 | C[C@@H]1CN(c2ccc(Cl)c3ncccc23)C[C@H](C(=O)NCC2CN(C)CCO2)O1 (stereo partly drawn) [Example 26, (2R,6R)-4-(8-chloro-5-quinolyl)-6-methyl-N-[(4-methylmorpholin-2-yl)methyl]morpholine-2-carboxamide] | -13% | 3% | -5% |  | 
5 | C[C@@H]1CN(c2ccc(C(F)(F)F)c3ncccc23)C[C@H](C(=O)NCCN2CCOCC2)O1 [Example 13, (2R,6R)-6-methyl-N-(2-morpholinoethyl)-4-[8-(trifluoromethyl)-5-quinolyl]morpholine-2-carboxamide] | 1% | 0% | -22% |  | 
6 | C[C@@H]1CN(c2ccc(C(F)(F)F)c3ncccc23)C[C@H](C(=O)NC2CNCC(F)(F)C2)O1 (stereo partly drawn) [Example 28, (2R,6R)-N-(5,5-difluoro-3-piperidyl)-6-methyl-4-[8-(trifluoromethyl)-5-quinolyl]morpholine-2-carboxamide] | 23% | 2% | -30% |  | 
7 | Cc1ccc(N2C[C@@H](C)O[C@@H](C(=O)NC3CCN(C)CC3)C2)c2cccnc12 [Example 16, (2R,6R)-6-methyl-N-(1-methyl-4-piperidyl)-4-(8-methyl-5-quinolyl)morpholine-2-carboxamide] | -8% | 5% | 2% |  | 
8 | C[C@@H]1CN(c2ccc(C(F)(F)F)c3ncccc23)C[C@H](C(=O)NC[C@@H]2CC(F)(F)CN2)O1 [Example 30] | 20% | 20% | 20% |  | 
9 | C[C@@H]1CN(c2ccc(C(F)(F)F)c3ncccc23)C[C@H](C(=O)NC2CC3CCCC(C2)N3)O1 (single isomer, unassigned) [Example 34B] |  |  | -28% | −8% | −10%
10 | C[C@@H]1CN(c2ccc(I)c3ncccc23)C[C@H](C(=O)NCC2CN(C)CCO2)O1 (stereo partly drawn) [Example 39, (2R,6R)-4-(8-iodo-5-quinolyl)-6-methyl-N-[(4-methylmorpholin-2-yl)methyl]morpholine-2-carboxamide] | -7% | 5% | 5% |  | 
11 | C[C@@H]1CN(c2ccc(C(F)(F)F)c3ncccc23)C[C@H](C(=O)NCC(C)(C)N)O1 [Example 6, (2R,6R)-N-(2-amino-2-methyl-propyl)-6-methyl-4-[8-(trifluoromethyl)-5-quinolyl]morpholine-2-carboxamide] | -13% | 13% | -10% |  | 
12 | C[C@@H]1CN(c2ccc(Cl)c3ncccc23)C[C@H](C(=O)NC2CCCNCC2)O1 (stereo partly drawn) [Example 25, (2R,6R)-N-(azepan-4-yl)-4-(8-chloro-5-quinolyl)-6-methyl-morpholine-2-carboxamide] | 26% | 0% | 2% |  | 
13 | C[C@@H]1CN(c2ccc(C(F)(F)F)c3ncccc23)C[C@H](C(=O)NC[C@@H]2C[C@@H](F)CN2)O1 [Example 27, (2R,6R)-N-[[(2S,4R)-4-fluoropyrrolidin-2-yl]methyl]-6-methyl-4-[8-(trifluoromethyl)-5-quinolyl]morpholine-2-carboxamide] | -8% | 6% | -2% |  | 
